Source: the NIST ThermoML archive (doi:10.1016/j.fluid.2017.12.031)
Where “and” joins values, the source holds several entries; their conditions need not be identical. Equal entries are not always repeated. ± gives the expanded uncertainty stated by the source.

How the values were obtained:
[1] = 313.15 K; Liquid; Closed cell (Static) method
[2] = excess molar enthalpy (molar enthalpy of mixing); xn = mol fraction of the nth substance listed; settings: 101 kPa, Liquid, Flow calorimetry

Cc1ccc(C)c(C)c1 [1,2,4-trimethylbenzene]
Settings	vapor or sublimation pressure [kPa]
[1]	0.73 ± 0.016

Cc1ccc(C)c(C)c1 [1,2,4-trimethylbenzene] + CCCC(C)O
excess molar enthalpy [kcal/mol], [2]
Settings	298.15 K	313.15 K
x2 = 0	0 ± 0.000239	0 ± 0.000239
x2 = 0.0499	0.144 ± 0.00191	0.149 ± 0.00198
x2 = 0.0987	–	0.237 ± 0.00311
x2 = 0.1012	0.218 ± 0.00287	–
x2 = 0.149	0.264 ± 0.00335	0.295 ± 0.00382
x2 = 0.1982	–	0.334 ± 0.0043
x2 = 0.2006	0.297 ± 0.00382	–
x2 = 0.2487	0.322 ± 0.00406	–
x2 = 0.2509	–	0.361 ± 0.00454
x2 = 0.298	0.338 ± 0.0043	–
x2 = 0.3002	–	0.382 ± 0.00478
x2 = 0.3485	0.35 ± 0.0043	–
x2 = 0.3507	–	0.392 ± 0.00502
x2 = 0.3979	0.358 ± 0.00454	0.399 ± 0.00502
x2 = 0.4482	0.36 ± 0.00454	–
x2 = 0.4504	–	0.4 ± 0.00502
x2 = 0.4996	0.356 ± 0.00454	0.397 ± 0.00502
x2 = 0.5476	–	0.386 ± 0.00478
x2 = 0.5496	0.349 ± 0.0043	–
x2 = 0.6005	–	0.369 ± 0.00454
x2 = 0.6006	0.334 ± 0.0043	–
x2 = 0.6482	–	0.346 ± 0.0043
x2 = 0.6502	0.313 ± 0.00382	–
x2 = 0.6987	–	0.318 ± 0.00406
x2 = 0.6988	0.289 ± 0.00359	–
x2 = 0.7479	–	0.285 ± 0.00359
x2 = 0.748	0.259 ± 0.00335	–
x2 = 0.7978	–	0.243 ± 0.00311
x2 = 0.7979	0.22 ± 0.00287	–
x2 = 0.8481	–	0.194 ± 0.00239
x2 = 0.8482	0.176 ± 0.00227	–
x2 = 0.8989	–	0.138 ± 0.00182
x2 = 0.899	0.124 ± 0.00165	–
x2 = 0.9501	–	0.0718 ± 0.00103
x2 = 0.9502	0.0647 ± 0.000932	–

Cc1ccc(C)c(C)c1 [1,2,4-trimethylbenzene] + CCCCCO
excess molar enthalpy [kcal/mol], [2]
Settings	298.15 K	313.15 K
x2 = 0	0 ± 0.000239	0 ± 0.000239
x2 = 0.0503	0.124 ± 0.00167	0.139 ± 0.00186
x2 = 0.0995	0.175 ± 0.00225	0.207 ± 0.00263
x2 = 0.15	0.204 ± 0.00263	0.248 ± 0.00311
x2 = 0.1995	0.22 ± 0.00287	0.273 ± 0.00335
x2 = 0.2501	0.233 ± 0.00287	–
x2 = 0.2502	–	0.289 ± 0.00359
x2 = 0.2997	0.241 ± 0.00311	0.297 ± 0.00382
x2 = 0.3481	0.243 ± 0.00311	0.3 ± 0.00382
x2 = 0.3998	0.24 ± 0.00311	0.3 ± 0.00382
x2 = 0.4481	0.234 ± 0.00287	–
x2 = 0.4482	–	0.295 ± 0.00359
x2 = 0.4995	0.223 ± 0.00287	0.283 ± 0.00359
x2 = 0.5495	0.21 ± 0.00263	–
x2 = 0.5496	–	0.268 ± 0.00335
x2 = 0.5985	0.194 ± 0.00239	–
x2 = 0.5986	–	0.25 ± 0.00311
x2 = 0.6482	0.175 ± 0.00225	0.227 ± 0.00287
x2 = 0.6985	0.153 ± 0.00198	–
x2 = 0.6986	–	0.203 ± 0.00263
x2 = 0.7494	0.129 ± 0.0017	–
x2 = 0.7495	–	0.173 ± 0.00222
x2 = 0.7991	0.104 ± 0.00139	0.142 ± 0.00184
x2 = 0.8492	0.0777 ± 0.00108	0.108 ± 0.00143
x2 = 0.8997	0.0527 ± 0.000765	0.0729 ± 0.001
x2 = 0.9505	0.0253 ± 0.000454	0.0354 ± 0.000574

C=CCCCC [hex-1-ene]
Settings	vapor or sublimation pressure
[1]	44.91 ± 0.16 kPa and 44.95 ± 0.16 kPa

C=CCCCC [hex-1-ene] + CCCC(C)O
[2], x2 = 0
Settings	excess molar enthalpy [kcal/mol]
298.15 K	0 ± 0.000239
313.15 K	0 ± 0.000239
